The source made the active and inactive calls. The calls are words filed in the database; no cut-off is given here. Where only a bound is given, the exact number is not on record here.

The test system of series [1] is A549. As to the kind of experiment: Antiproliferative activity against human A549 cells after 72 hrs by SRB assay. The series is classed as functional, cell-based. As to conditions: A549, 72 h. In general terms: Sulforhodamine B stains cellular protein and so reports cell mass.
For series [2], the system named is A549. Put plainly: Induction of apoptosis in human A549 cells assessed as live cells at 10 uM after 48 hrs by Annexin V-FITC/propidium iodide staining based flow cytometry (reference value: 90%). The format is functional. In general terms: Flow cytometry measures light scatter and fluorescence of single cells or particles in a stream.
In series [3] the target is PI3-kinase p110-alpha/p85-alpha (Homo sapiens) (UniProt P27986+P42336). As to the kind of experiment: Inhibition of human PI3K p110alpha/p85alpha at 10 uM using phosphatidylinositol 4,5-bisphosphate as substrate after 30 mins by HTRF assay relative to control. The format is protein-complex assay. Background: TR-FRET usually uses a lanthanide donor and a delayed reading to cut background.

In series [4] the test system is A-375. Put plainly: Antiproliferative activity against human A375 cells after 72 hrs by SRB assay. The series is classed as functional, cell-based. As to conditions: A-375, 72 h.
In series [5] the test system is A549. Put plainly: Induction of apoptosis in human A549 cells assessed as early apoptotic cells at 10 uM after 48 hrs by Annexin V-FITC/propidium iodide staining based flow cytometry (reference value: 3.6%). The series is classed as functional.
The test system of series [6] is A549. Put plainly: Inhibition of mTORC1 in human A549 cells assessed as reduction in S6 phosphorylation at […] residues at 5 uM up to 2 hrs by Western blot method. The format is cell-based.
For series [7], the system named is MCF7. Put plainly: Antiproliferative activity against human MCF7 cells after 72 hrs by SRB assay. As to conditions: MCF7, 72 h. The series is classed as functional, cell-based.
Series [8] deals with PI3-kinase p110-delta/p85-alpha (Homo sapiens) (UniProt P27986+O00329). As to the kind of experiment: Inhibition of human PI3K p110delta/p85alpha at 10 uM using phosphatidylinositol 4,5-bisphosphate as substrate after 30 mins by HTRF assay relative to control. The format is protein-complex assay.
For series [9], the system named is A549. Put plainly: Induction of apoptosis in human A549 cells assessed as necrotic cells at 10 uM after 48 hrs by Annexin V-FITC/propidium iodide staining based flow cytometry (reference value: 0.1%). The format is functional.
The nature of series [10]: Antiproliferative activity against human U87 cells after 72 hrs by SRB assay. The format is functional, cell-based, U-87MG ATCC. The following applies: U-87 MG.
The test system of series [11] is A549. Put plainly: Cell cycle arrest in human A549 cells assessed as accumulation at G1 phase at 10 uM after 48 hrs by propidium iodide staining based flow cytometry (reference value: 40.21%). The series is classed as functional.
Series [12] has as its target Phosphatidylinositol 4,5-bisphosphate 3-kinase catalytic subunit gamma isoform (Homo sapiens) (UniProt P48736). Put plainly: Inhibition of human PI3K p120gamma at 10 uM using phosphatidylinositol 4,5-bisphosphate as substrate after 30 mins by HTRF assay relative to control.
In series [13] the test system is A549. Put plainly: Antitumor activity against human A549 cells xenografted in Balb/c nude mouse assessed sa tumor growth inhibition at 30 mg/kg, iv administered 7 times on day 14, 16, 18, 21, 23, 25, 28 post tumor implantation measured after 1 week relative to control. The format is functional. As to conditions: read-out: TGI.
Series [14] relates to A549. Put plainly: Induction of apoptosis in human A549 cells assessed as late apoptotic cells at 10 uM after 48 hrs by Annexin V-FITC/propidium iodide staining based flow cytometry (reference value: 6.3%). The format is functional.
In series [15] the test system is A549. As to the kind of experiment: Cell cycle arrest in human A549 cells assessed as accumulation at S phase at 10 uM after 48 hrs by propidium iodide staining based flow cytometry (reference value: 45.31%). The format is functional.
Series [16] concerns A549. Put plainly: Inhibition of mTORC2 in human A549 cells assessed as reduction in Akt phosphorylation at Ser-473 residue at 5 uM up to 2 hrs by Western blot method. The series is classed as cell-based.
Series [17] concerns the target PI3-kinase p110-alpha/p85-alpha (Homo sapiens, UniProt P42336). As to the kind of experiment: Inhibition of human PI3K p110alpha/p85alpha using phosphatidylinositol 4,5-bisphosphate as substrate after 30 mins by HTRF assay. The series is classed as protein-complex assay.
Series [18] concerns HEK293. Put plainly: Antiproliferative activity against HEK293 cells after 72 hrs by SRB assay. The series is classed as cell-based. The following applies: Homo sapiens, HEK293, 72 h.
Series [19] has as its system Mus musculus. Put plainly: Toxicity in Balb/c nude mouse xenografted with human A549 cells assessed as mortality at 5 to 30 mg/kg, iv administered 7 times on day 14, 16, 18, 21, 23, 25, 28 post tumor implantation. The format is organism-based. As to conditions: in vivo.
For series [20], the target named is T1, Serine/threonine-protein kinase mTOR (Homo sapiens, UniProt P42345). As to the kind of experiment: Inhibition of mTOR in human A549 cells assessed as reduction in p70S6K phosphorylation at T389 residue after 2 hrs by HTRF method. The series is classed as cell-based.
The subject of series [21] is Mus musculus. As to the kind of experiment: Toxicity in Balb/c nude mouse xenografted with human A549 cells assessed as changes in body weight at 5 to 30 mg/kg, iv administered 7 times on day 14, 16, 18, 21, 23, 25, 28 post tumor implantation. The series is classed as organism-based. The following applies: in vivo.
For series [22], the target named is PI3K p110 beta/p85 alpha (Homo sapiens) (UniProt P27986+P42338). As to the kind of experiment: Inhibition of human PI3K p110beta/p85alpha at 10 uM using phosphatidylinositol 4,5-bisphosphate as substrate after 30 mins by HTRF assay relative to control. The format is protein-complex assay.
Sequence of PI3K p110 beta/p85 alpha (Homo sapiens) (P27986 2-724 limits assumed): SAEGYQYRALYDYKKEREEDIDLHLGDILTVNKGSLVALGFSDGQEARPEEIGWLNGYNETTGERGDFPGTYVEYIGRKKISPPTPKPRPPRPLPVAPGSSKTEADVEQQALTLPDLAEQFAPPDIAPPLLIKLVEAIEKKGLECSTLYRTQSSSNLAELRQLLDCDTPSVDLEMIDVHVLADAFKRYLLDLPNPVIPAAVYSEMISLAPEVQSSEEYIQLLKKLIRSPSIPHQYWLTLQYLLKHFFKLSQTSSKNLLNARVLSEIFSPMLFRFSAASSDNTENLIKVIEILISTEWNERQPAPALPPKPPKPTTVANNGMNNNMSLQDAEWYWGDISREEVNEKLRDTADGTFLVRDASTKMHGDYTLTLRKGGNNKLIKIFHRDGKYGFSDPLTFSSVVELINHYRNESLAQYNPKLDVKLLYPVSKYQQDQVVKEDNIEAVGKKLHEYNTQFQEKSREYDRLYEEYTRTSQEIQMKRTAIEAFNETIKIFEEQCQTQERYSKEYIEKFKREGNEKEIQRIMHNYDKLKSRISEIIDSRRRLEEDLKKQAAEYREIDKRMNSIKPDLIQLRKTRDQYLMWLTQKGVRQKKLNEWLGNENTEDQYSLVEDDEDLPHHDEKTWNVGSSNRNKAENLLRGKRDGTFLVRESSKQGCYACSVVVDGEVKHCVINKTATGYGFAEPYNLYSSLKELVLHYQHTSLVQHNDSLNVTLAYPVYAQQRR
Sequence of PI3K p110 beta/p85 alpha (Homo sapiens) (P42338 whole entry partner): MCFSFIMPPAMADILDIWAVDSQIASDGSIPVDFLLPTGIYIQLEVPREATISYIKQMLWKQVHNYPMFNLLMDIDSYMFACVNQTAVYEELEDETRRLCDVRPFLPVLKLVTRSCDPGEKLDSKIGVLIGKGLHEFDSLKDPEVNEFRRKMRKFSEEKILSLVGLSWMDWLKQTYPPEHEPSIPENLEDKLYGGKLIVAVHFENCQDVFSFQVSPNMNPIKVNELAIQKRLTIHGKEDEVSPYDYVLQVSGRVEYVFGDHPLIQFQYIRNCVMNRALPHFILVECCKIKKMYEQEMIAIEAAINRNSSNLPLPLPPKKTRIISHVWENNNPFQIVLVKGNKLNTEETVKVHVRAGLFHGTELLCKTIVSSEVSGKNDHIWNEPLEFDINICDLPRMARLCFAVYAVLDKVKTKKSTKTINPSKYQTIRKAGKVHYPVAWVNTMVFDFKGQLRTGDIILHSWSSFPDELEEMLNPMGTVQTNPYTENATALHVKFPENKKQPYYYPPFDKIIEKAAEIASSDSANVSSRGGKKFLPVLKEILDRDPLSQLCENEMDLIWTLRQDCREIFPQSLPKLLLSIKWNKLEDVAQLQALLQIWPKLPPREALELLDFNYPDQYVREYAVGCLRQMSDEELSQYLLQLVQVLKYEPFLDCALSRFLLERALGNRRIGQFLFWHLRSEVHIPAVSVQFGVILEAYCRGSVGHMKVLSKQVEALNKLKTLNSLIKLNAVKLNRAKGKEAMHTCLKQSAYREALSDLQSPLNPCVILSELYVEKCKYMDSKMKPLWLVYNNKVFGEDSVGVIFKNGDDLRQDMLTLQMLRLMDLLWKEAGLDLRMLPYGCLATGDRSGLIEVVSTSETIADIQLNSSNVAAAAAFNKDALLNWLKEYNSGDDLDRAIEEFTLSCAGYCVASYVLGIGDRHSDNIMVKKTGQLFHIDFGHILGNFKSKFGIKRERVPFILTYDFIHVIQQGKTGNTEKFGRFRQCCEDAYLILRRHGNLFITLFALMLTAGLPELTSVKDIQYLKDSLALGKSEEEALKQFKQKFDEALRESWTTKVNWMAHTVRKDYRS
In series [23] the test system is A549. As to the kind of experiment: Cell cycle arrest in human A549 cells assessed as accumulation at G2 phase at 10 uM after 48 hrs by propidium iodide staining based flow cytometry (reference value: 14.49%). The format is functional.
Series [24] has as its system NCI-H460. As to the kind of experiment: Antiproliferative activity against human NCI-H460 cells after 72 hrs by SRB assay. The series is classed as functional, cell-based. The following applies: NCI-H460, 72 h.
Series [25] deals with T1, Serine/threonine-protein kinase mTOR. As to the kind of experiment: Inhibition of human N-terminal FLAG-tagged mTOR (1362-end residues) in presence of [gamma33P]ATP after 40 mins.
Series [26] in a line: Solubility of the compound. The format is physicochemical.

Sequence of Phosphatidylinositol 4,5-bisphosphate 3-kinase catalytic subunit gamma isoform (Homo sapiens) (P48736 whole entry, looked up, canonical isoform): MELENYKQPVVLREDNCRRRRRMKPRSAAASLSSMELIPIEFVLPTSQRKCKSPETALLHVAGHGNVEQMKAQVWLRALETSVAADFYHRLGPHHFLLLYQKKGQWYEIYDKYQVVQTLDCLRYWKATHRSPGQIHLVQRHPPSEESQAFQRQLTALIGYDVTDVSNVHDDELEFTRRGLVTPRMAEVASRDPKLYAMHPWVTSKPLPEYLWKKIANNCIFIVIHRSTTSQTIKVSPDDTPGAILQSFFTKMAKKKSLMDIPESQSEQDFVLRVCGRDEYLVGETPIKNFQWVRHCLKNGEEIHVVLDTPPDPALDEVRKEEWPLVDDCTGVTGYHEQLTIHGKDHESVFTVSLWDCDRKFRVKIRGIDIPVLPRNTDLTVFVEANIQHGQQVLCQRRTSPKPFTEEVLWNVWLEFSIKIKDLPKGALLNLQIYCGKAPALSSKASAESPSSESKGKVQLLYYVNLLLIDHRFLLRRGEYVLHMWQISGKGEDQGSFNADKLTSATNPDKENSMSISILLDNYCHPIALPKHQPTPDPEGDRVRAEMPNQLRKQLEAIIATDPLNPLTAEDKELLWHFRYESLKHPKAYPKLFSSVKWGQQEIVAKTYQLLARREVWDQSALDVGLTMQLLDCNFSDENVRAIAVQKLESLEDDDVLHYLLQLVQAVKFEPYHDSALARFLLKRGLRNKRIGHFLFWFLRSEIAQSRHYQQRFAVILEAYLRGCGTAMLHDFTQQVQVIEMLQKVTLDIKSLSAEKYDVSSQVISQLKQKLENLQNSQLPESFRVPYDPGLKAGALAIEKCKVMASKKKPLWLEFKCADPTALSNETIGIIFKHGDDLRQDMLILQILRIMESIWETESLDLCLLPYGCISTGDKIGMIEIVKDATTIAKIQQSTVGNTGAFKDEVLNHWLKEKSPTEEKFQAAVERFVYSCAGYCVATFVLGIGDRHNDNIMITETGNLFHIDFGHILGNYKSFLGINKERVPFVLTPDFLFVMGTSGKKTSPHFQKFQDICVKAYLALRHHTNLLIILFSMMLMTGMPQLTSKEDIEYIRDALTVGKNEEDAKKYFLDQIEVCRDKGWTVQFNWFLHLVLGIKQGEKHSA
Sequence of PI3-kinase p110-alpha/p85-alpha (P27986 whole entry): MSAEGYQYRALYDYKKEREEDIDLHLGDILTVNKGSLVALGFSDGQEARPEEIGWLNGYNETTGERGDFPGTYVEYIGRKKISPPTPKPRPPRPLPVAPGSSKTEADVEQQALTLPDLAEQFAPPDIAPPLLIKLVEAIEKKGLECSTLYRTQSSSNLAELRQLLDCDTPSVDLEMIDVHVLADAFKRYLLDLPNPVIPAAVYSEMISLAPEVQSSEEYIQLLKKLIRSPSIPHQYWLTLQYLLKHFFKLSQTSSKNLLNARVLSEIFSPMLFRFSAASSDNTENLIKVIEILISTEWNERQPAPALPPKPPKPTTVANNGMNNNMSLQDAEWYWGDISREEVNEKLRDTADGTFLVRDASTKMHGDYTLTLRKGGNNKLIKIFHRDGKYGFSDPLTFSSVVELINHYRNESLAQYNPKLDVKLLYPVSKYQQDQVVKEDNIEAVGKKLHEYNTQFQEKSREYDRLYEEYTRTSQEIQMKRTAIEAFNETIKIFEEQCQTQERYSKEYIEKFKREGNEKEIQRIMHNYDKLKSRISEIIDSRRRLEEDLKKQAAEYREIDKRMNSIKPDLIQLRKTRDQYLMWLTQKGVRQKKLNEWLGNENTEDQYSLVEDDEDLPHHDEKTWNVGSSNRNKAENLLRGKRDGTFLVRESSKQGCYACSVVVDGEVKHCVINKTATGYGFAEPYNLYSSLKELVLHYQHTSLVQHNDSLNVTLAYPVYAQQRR
Sequence of PI3-kinase p110-alpha/p85-alpha (P42336 whole entry): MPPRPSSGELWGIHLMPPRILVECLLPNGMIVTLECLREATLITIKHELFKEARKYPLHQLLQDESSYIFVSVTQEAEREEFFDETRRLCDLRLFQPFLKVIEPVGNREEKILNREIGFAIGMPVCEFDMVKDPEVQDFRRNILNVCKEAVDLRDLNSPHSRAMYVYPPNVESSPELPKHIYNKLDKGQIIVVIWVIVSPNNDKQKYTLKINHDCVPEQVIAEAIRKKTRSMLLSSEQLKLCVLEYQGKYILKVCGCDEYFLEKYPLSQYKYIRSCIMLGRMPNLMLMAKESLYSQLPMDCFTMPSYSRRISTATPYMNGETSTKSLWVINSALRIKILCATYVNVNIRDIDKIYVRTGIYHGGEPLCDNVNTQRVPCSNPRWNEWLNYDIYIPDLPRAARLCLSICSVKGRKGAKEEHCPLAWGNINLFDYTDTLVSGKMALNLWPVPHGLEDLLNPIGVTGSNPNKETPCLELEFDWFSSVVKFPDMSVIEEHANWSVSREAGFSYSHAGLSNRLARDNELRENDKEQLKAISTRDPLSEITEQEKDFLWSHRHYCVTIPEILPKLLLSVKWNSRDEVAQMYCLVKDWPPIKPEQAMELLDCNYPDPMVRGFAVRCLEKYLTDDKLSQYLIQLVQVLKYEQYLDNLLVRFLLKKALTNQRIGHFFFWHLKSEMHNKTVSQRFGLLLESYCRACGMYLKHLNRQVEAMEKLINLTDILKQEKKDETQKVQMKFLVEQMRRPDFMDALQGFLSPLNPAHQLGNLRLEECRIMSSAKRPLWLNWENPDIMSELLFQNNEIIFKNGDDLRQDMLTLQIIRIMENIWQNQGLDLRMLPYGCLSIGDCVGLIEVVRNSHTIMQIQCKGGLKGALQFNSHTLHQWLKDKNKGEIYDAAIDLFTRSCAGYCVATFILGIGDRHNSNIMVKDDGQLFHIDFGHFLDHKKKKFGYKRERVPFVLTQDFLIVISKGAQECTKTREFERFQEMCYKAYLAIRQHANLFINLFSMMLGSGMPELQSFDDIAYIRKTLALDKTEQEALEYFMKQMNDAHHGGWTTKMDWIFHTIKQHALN

With `C[C@H]1COCCN1c1cc(-c2ccc(NC(=O)Nc3cccnc3)cc2)nn2ccnc12`, the IC50 in [1] turned out to be 0.05 µM; in series [4] it was 11.3 µM; in series [7], 40 µM; in series [10] it was 13.5 µM; in series [17] it was 4.42 µM; in series [18], 9 µM. The half-inhibitory concentration (IC50) in series [24] amounted to 0.47 µM; in series [25], 0.067 µM. Moreover, the Activity in [2] is 87.8%; in [5], 3.5%; in [9] it was 0%; in series [11], 55.32%; in [14] it was 8.8%; in [15], 33.07%. Further, the Activity result in series [19] is on record as “Non-Toxic”; in series [21] it was “Non-Toxic”; in [23] it was 7.61%. Besides, the inhibition is 59% in series [3]; 19% in [8]; 40% in series [12]; “Dose-dependent effect” in [20]; 24% in [22]. For the same compound, the inhibition result in series [6] and in series [16] was “Active” throughout. Moreover, the inhibition in vivo at 30 mg/kg in series [13] was 37.8%.

Consider `COc1ccc(-c2ccc3c(N4CCOC[C@@H]4C)nc(N4CCOC[C@@H]4C)nc3n2)cc1CO` [AZD-8055], for which the concentration for half-maximal inhibition (IC50) in series [1] stood at 0.05 µM; in series [4], 0.12 µM; in series [7], 0.14 µM; in series [10], 0.19 µM; in series [17], 5.58 µM; in series [18], 1.4 µM. In series [24], the IC50 came to 0.01 µM. Also, the inhibition in series [3] came out at 70%; in series [8], 59%; in [12] it was 29%; in series [22], 12%.

Regarding `Oc1cccc(-c2nc(N3CCOCC3)c3oc4ncccc4c3n2)c1`, the inhibition in [3] turned out to be 101%; in series [8], 96%; in series [12] it was 98%; in series [22], 99%.

For the compound `Cc1cnc2c(N3CCOCC3)cc(-c3ccc(NC(=O)Nc4cccnc4)cc3)nn12`, in series [26], the solubility entry is “Insoluble”. Besides, the IC50 in series [1] stood at 5 µM; in [4], 6.4 µM; in [7], 16.3 µM; in series [10] it was 12.9 µM; in [18], 11.5 µM; in [24], 6.8 µM.

As for `Cc1cnc2c(N3CCOC[C@@H]3C)cc(-c3ccc(NC(=O)Nc4ccncc4)cc3)nn12`, the solubility result in series [26] is “Insoluble”. Besides, the IC50 was 2.1 µM in [1]; 2.3 µM in series [4]; more than 40 µM in series [7]; more than 40 µM in [10]; more than 40 µM in [18]; more than 40 µM in series [24].

Turning to `Cc1cnc2c(N3CCOC[C@@H]3C)cc(-c3ccc(NC(=O)Nc4cccnc4)cc3)nn12`, the solubility result in [26] is on record as “Insoluble”. The IC50 in series [1] came out at 1.2 µM; in [4], 3.3 µM; in series [7] it was 7.8 µM; in [10], 10.8 µM; in [18] it was 8.2 µM; in series [24], 7.3 µM.

Turning to `C[C@H]1COCCN1c1cc(-c2ccc(NC(=O)Nc3ccncc3)cc2)nn2ccnc12`, the IC50 was 0.02 µM in series [1]; 5.8 µM in [4]; 13.1 µM in [7]; 7.4 µM in series [10]; 3.11 µM in series [17]; 5.2 µM in series [18]. Moreover, the concentration for half-maximal inhibition (IC50) in series [24] is 0.67 µM; in series [25], 0.062 µM. Besides, the Activity in [2] came to 89.9%; in series [5], 3.7%; in series [9], 0%; in [11] it was 50.95%; in series [14], 6.3%; in series [15], 35.19%. Moreover, the Activity in series [23] came out at 13.86%. Moreover, the inhibition in [3] was 64%; in series [8] it was 29%; in series [12], 39%; in series [20] it was “Dose-dependent effect”; in series [22], 33%. Moreover, the inhibition entry in [6] and in series [16] was “Active” each time.

As a reminder, the IC50 is the concentration that gives 50% inhibition. The inhibition is the drop in the measured response relative to a control, in per cent.

These data come from ChEMBL document CHEMBL4007445, “Design, synthesis, and biological evaluation of imidazo[1,2-b]pyridazine derivatives as mTOR inhibitors” (Eur J Med Chem, 2017).
